Peptide text beside a SMILES is read from it. * marks the point of attachment. Cbz = O=C(OCc1ccccc1)*; CH2F = FC*
Legend:
[1] = tested on: human neuroblastoma SK-N-MC cells; experiment: Inhibition of camptothecin-induced apoptosis by flow cytometry (sub-G1); type: cell-based; settings: 50 μM Z-VAD-fmk; 50 μM camptothecin
Experimental: The assay was performed on human neuroblastoma SK-N-MC cells in culture from the American Type Culture Collection (ATCC), in all cases strict rules of sterility were followed and the manipulation was performed in class II biological safety cabinets following European standard EN 12469. The cells were maintained in the following culture medium: Minimum Essential Medium Eagle (MEM) supplemented with 1 mM sodium pyruvate, 2 mM L-glutamine, 0.1 mM non-essential amino acids, 0.05 mg/ml gentamicin and 10% fetal bovine serum.
The inhibition caused by compound NST0037 against apoptosis (programmed cell death) caused by treatment with camptothecin which inhibits the enzyme Topoisomerase I, which prevents DNA duplication and triggers apoptotic cell death, was analyzed. These cells, not exceeding 15 passages, were seeded on 6-well plates treated for adherent cells with a cell concentration of 8×10^5 cells/well and 7×10^5 cells/well for the assay with pretreatment; 2 wells of the plate were seeded for each condition of the assay.
After 24 hours of cell incubation at 37° C. and 5% CO2, the cell treatments were performed with 2 ml of total volume for the following conditions: • Control: culture medium (medium) • Camptothecin: medium plus camptothecin 50 μM. • Camptothecin plus Z-VAD-fmk: medium plus 50 μM camptothecin plus 50 μM Z-VAD-fmk, as positive inhibition control. • Camptothecin plus NST0037: medium plus 50 μM camptothecin plus NST0037 at 10, 40 or 100 μM.
In the assay with pretreatment, the cells were previously treated with 40 μM of NST0037, 100 μM of mevalonate or both together for 24 hours and then they were treated with 50 μM camptothecin, the rest of the procedure was similar to the assay without pretreatment.
The cells were incubated (at 37° C. and 5% CO2) with these treatments for 6 hours, after which time they were collected along with their culture medium and centrifuged at 300×g for 5 minutes. The medium was removed, a washing was performed with PBS and the cells were fixed for 2 minutes with 500 μl of 70% ethanol at −20° C. Once fixed, they were centrifuged at 400×g for 5 minutes, washed with PBS and 0.05 mg/ml propidium iodide, diluted in cycling buffer (0.1% sodium citrate, 0.3% Nonidet P-40 and 0.02 mg/ml RNase) were added and they were incubated for 1 hour at 37° C. After this time they were analyzed by flow cytometry, comparing the fluorescence of propidium iodide against the amount of DNA. The percentage of apoptosis was measured on the sub-G1 region of each of the conditions.

caspase 3/7 = experiment: Inhibition of camptothecin-induced activation of caspase 3/7 in SK-N-MC cells; type: cell-based, human; settings: 50 μM Z-VAD-fmk; 50 μM CPT
Experimental: The assay was performed on human neuroblastoma SK-N-MC cells in culture from the American Type Culture Collection (ATCC), in all cases strict rules of sterility were followed and the manipulation was performed in class II biological safety cabinets following European standard EN 12469. The cells were maintained in the following culture medium: Minimum Essential Medium Eagle (MEM) supplemented with 1 mM sodium pyruvate, 2 mM L-glutamine, 0.1 mM non-essential amino acids, 0.05 mg/ml gentamicin and 10% fetal bovine serum. The induction of apoptosis on the cells in culture was performed by means of incubation with camptothecin (CPT), which triggers cell apoptosis activation. The apoptosis was determined by means of the measurement of the activation of effector caspases, caspase 3 or caspase 7, for which a kit for the fluorometric detection of active caspase 3/7 (Apo-ONE® Homogeneous Caspase-3/7, Promega) was used. The active caspase 3 or 7 of the cells cause the rupture of a substrate, which leads to fluorescence emission, which is read by means of a fluorometer. The effect of the pretreatment of compound NST0037 at 10 and 40 μM on the activation of caspase 3/7 caused by 50 μM of camptothecin (CPT) in the SK-N-MC cells was thus analyzed. These cells, not exceeding 15 passages, were seeded on 96-well plates treated for adherent cells with a cell concentration of 5×10^4 cells/well, 3 wells of the plate were seeded for each condition of the assay. After 24 hours of cell incubation at 37° C. and 5% CO2, the pretreatment with NST0037 at 10 and 40 μM was performed. […] On the following day, fluorescence was measured (499/521 nm, […]).

zebrafish embryo = experiment: Biosafety in zebrafish embryo (OECD C15, semi-static, 9 days); type: in vivo, Danio rerio
Experimental: The fertilized eggs were obtained by natural mating of the zebrafish (Danio rerio, AB strain). A total of 8-10 pairs were used for each cross and a total of 200-250 eggs were generated on average per pair.
To assure exposure in the earliest stages of development, the eggs were quickly transferred (a minimum of 50 per condition) to another Petri dish with solutions of the compounds to be tested. […] Each experiment was performed in triplicate.
The studies were conducted in a total of 9 days post-fertilization, in which the treatment was renewed every day, thus conducting a semi-static assay.
The results at the end of the experiment allowed collecting the percentage of healthy larvae which reach the end of the experiment, defined as the number of live larvae and without symptoms of external physiopathological anomalies (morphological and/or behavioral), this being a parameter determining the biosafety of a substance under study and is complementary to the survival rates and to the LD50.
The anomalies recorded in the study are described below: • Intracranial thrombosis: a clot inside the blood vessel, in this case of any cerebral vessel. • Cardiac thrombosis: occurs in a cardiac vessel. • Cardiac edema (or hydrops): accumulation of fluid in the intercellular tissue space and also in the cavities of the organism. In the case of the heart, it causes the accumulation of fluid in the pericardial sac. • Malformation: a noticeable difference in the shape of the body or part of the body, or organ of the body (internal or external) compared with the average shape of the part in question.
The cardiac rhythm of the zebrafish embryos-larva was determined by means of visual analysis in stereomicroscopy, determining the heartbeat with the aid of a manual counter for a period of one minute.

zebrafish larvae = experiment: Acute toxicity assay in zebrafish larvae (24 hours); type: in vivo, Danio rerio; settings: for Mortality (dead larvae/total): 1 day
Experimental: To evaluate the biosafety of compound NST0037, its toxicological effects on the zebrafish larvae model were analyzed by means of determining the safety parameters of the OECD C15 protocol.
The fertilized eggs were obtained by natural mating of the zebrafish (Danio rerio, AB strain). A total of 8-10 pairs were used for each cross and a total of 200-250 eggs were generated on average per pair. The eggs were collected immediately after spawning and were washed with dilution water (CaCl2.2H2O2 0.29 g/L, MgSO4.7H2O2 0.12 g/L, NaHCO3 0.065 g/L, KCl 0.006 g/L), the pH being adjusted to 7.8±0.2, in accordance with EC Regulation 440/2008, method C.1, and were deposited in a Petri dish.
The embryos were developed normally until 96 hours post-fertilization in their growth medium. […] […]. Each experiment was performed in triplicate.
The studies were conducted for 24 hours of treatment, thus performing an acute toxicity assay. […].
After the time of exposure of the substances under study, the record of the mortality of the larvae was determined. […].
[…]. The percentage of healthy larvae was defined as the number of live larvae without symptoms of external physiopathological anomalies (morphological and/or behavioral), the latter being a parameter determining the biosafety of a substance under study and is complementary to the survival rates and to LD50. […].
The anomalies recorded in the study are described below: • Thrombosis in the yolk sac: it is a clot inside a blood vessel, in this case of any vessel irrigating the yolk. • Cardiac thrombosis: occurs in a cardiac vessel. • Cardiac edema (or hydrops): accumulation of fluid in the intercellular tissue space and also in the cavities of the organism. In the case of the heart, it causes the accumulation of fluid in the pericardial sac.

adult zebrafish = experiment: Lethality by constant exposure in water (4 days) in adult zebrafish (OECD 203); type: in vivo; settings: for histopathology: ovary / Mortality (dead animals/total): 4 days
Experimental: The object of this assay is to determine the acute lethal toxicity of a substance on freshwater fish. Acute toxicity is the distinguishable adverse effect induced in an organism as a result of the exposure to a given substance for a short time period (days).
The deaths of the animals under study during the entire time of the assay were recorded as a toxicity parameter.
To that end, the fish that survived the treatment were sacrificed at 4 days post-treatment (previously anesthetized) and the samples (whole fish) were included in paraffin. The hematoxylin-eosin staining was subsequently performed in order to conduct the histopathological studies, obtaining a minimum of 6 longitudinal sections per animal, for the purpose of collecting different study areas of the same organ. The following organs were studied: brain, kidney, pancreas, intestine, eye, gills, ovary, testicle, muscle and liver.

Compound: COC(=O)C[C@H](NC(=O)[C@H](C)NC(=O)[C@@H](NC(=O)OCc1ccccc1)C(C)C)C(=O)CF [Z-VAD-fmk, reference compound] (Cbz-Val-Ala-Asp(OMe)-CH2F)
- inhibition of apoptosis caused by camptothecin (positive inhibition control) [1]: specifically inhibited the apoptosis caused by camptothecin
- inhibition of activation of caspase 3/7 (inhibition control) (caspase 3/7): completely inhibited the activation of caspase 3/7

Compound: CCC(C)(C)C(=O)O[C@H]1C[C@@H](C)C=C2C=C[C@H](C)[C@H](CC[C@@H]3C[C@@H](O)CC(=O)O3)[C@H]21 [simvastatin, reference compound]
- percentage of larvae with malformations or anomalous appearance (zebrafish embryo; 0.2 mg/L): significant percentage of anomalies or toxicological problems
- survival rate of embryos-larvae (zebrafish embryo; high dose (2 mg/L, FIG. 24)): more toxic, since the reduction of the survival rate started earlier in time
- reduction of the cardiac rhythm vs controls (zebrafish embryo; increasing doses up to 2 mg/L, 72 hours post-treatment): statistically significant reduction with respect to the controls after the dose of 0.06
- survival rate of embryos-larvae vs controls (zebrafish embryo; lower dose (FIG. 25: NST0037 0.2 mg/L)): caused a significant reduction of the survival rate
- percentage of larvae with toxicological symptomatology (anomalous appearance) (zebrafish larvae; 24 hours exposure): induced a larger percentage of larvae with toxicological symptomatology than compound NST0037
- Mortality (dead larvae/total) (zebrafish larvae; Dose 10 mg/Kg): 0/30
- Mortality (dead larvae/total) (zebrafish larvae; Dose 30 mg/Kg): 0/30
- Mortality (dead larvae/total) (zebrafish larvae; Dose 100 mg/Kg): 0/30
- Mortality (dead larvae/total) (zebrafish larvae; Dose 300 mg/Kg): 0/30
- Mortality (dead larvae/total) (zebrafish larvae; Dose 1000 mg/Kg): 0/30
- percentage of healthy larvae (zebrafish larvae; highest study dose (1000 mg/Kg), 24 hours): 53.3±8.8%
- histopathology: ovary (adult zebrafish; 30 mg/kg): also presented histopathological damage in the ovary
- histopathology: ovary (adult zebrafish; 100 mg/Kg): presented ovarian damage
- Mortality (dead animals/total) (adult zebrafish; Dose 1 mg/kg): 0/7
- Mortality (dead animals/total) (adult zebrafish; Dose 3.2 mg/kg): 0/7
- Mortality (dead animals/total) (adult zebrafish; Dose 10 mg/kg): 0/7
- Mortality (dead animals/total) (adult zebrafish; Dose 32 mg/kg): 0/7
- Mortality (dead animals/total) (adult zebrafish; Dose 100 mg/kg): 6/7
- percentage of mortality (adult zebrafish; day 4 post-treatment (100 mg/kg group)): 86%
